Experimental data published in patent US7772228B2, “Method for treatment of bacterial infections with once or twice-weekly administered rifalazil” (priority 1998, dated 2010).
In brackets after ≈: the same amount, converted by molar mass. Like-named read-outs stand apart in the source and are kept apart here.

Assays:
[1] = system: M. tuberculosis; conditions: cited from earlier work
[2] = in vivo; design: species or system rats; conditions: rat
Protocol: In chronic studies with dogs and rats, the no-observed-adverse-effect-level was 1000 mg/kg. […] Significant partitioning of drug-related radioactivity to the formed elements of the blood was observed. […] The urine contained a small amount (5.5%) of radioactivity.
Pharmacokinetic parameters were determined following single and multiple doses in rats and dogs. The doses in rats and dogs were based upon those utilized in the single and multiple-dose toxicology studies. In addition, the absorption, distribution, metabolism, and elimination of rifalazil was studied in rats and dogs. These studies confirmed prior findings that there are species differences vis-a-vis sensitivity to and response to treatment with rifalazil.

[3] = system: Chlamydia pneumoniae strain TW-l 83; experiment: Sensitivity testing in cell cultures; format: cell-based
Protocol: Sensitivity testing was conducted in cell cultures against Chlamydia pneumoniae strain TW-l 83 using rifalazil, clanthromycin, or azithromycin. […] The in vivo testing of rifalazil used a mouse model infected with Chlamydia pneumoniae strain AR-39. […] All control animals remained infected.

[4] = system: M. tuberculosis; conditions: cited from earlier work; remark: listed apart in the source
[5] = system: M. intracellulare; conditions: 31 strains, agar dilution; cited from earlier work
[6] = Clinical signs, general behavior and spontaneous locomotor activity of mice; format: in vivo
Protocol: Pharmacological studies were undertaken in mice, rats, and dogs, and in isolated guinea pig ileum.
Rifalazil had little effect on the clinical signs or general behavior of mice following oral administration of 100, 300, or 1,000 mg/kg. Rifalazil had no effect on the spontaneous locomotor activity of mice at 100 and 300 mg/kg.

[7] = Ref. 7, 7H11 agar, 22 strains (rif^r and rif^s)
[8] = Ref. 1, BACTEC, 30 strains (rif^r and rif^s)
[9] = Ref. 2, BACTEC, 24 strains (rif^r and rif^s)
[10] = Ref. 3, BACTEC, 13 strains (rif^s)
[11] = Ref. 4, BACTEC, 11 strains (rif^r)
[12] = Ref. 5, BACTEC, 20 strains (rif^s)
[13] = thirty clinical isolates, BACTEC

CO[C@H]1/C=C/O[C@@]2(C)Oc3c(C)c(O)c4c(=O)c(c5oc6cc(N7CCN(CC(C)C)CC7)cc(O)c6nc-5c4c3C2=O)NC(=O)/C(C)=C\C=C\[C@H](C)[C@H](O)[C@@H](C)[C@@H](O)[C@@H](C)[C@H](OC(C)=O)[C@@H]1C [Rifalazil, 3′-hydroxy-5′-(4-isobutyl-1-piperazinyl)benzoxasinorifamycin]
MIC90 ([1]; 22 strains, agar dilution): 12.5 µg/mL (≈ 13.3 µM) | MIC90 [1, 7]: 12.5 µg/mL (≈ 13.3 µM) | MIC Range [1, 7]: ≦0.0125 to 12.5^ μg/mL | MIC90 ([1]; Ref. 8, 7H11 agar, 16 strains (rif^s)): ≦0.0125 μg/mL | CL/F ([2]; female): 3.62 mL/min/kg | CL/F ([2]; male): 3.07 mL/min/kg | half-life [2]: 12.5 h | radioactivity in the urine [2]: 5.5% | radioactivity recovered in the feces [2]: 84% | bioavailability ([2]; 3 mg/kg): 30 to 40% | fold more potent than clanthromycin [3]: 300 fold | fold more potent than erythromycin [3]: 1500 fold | MIC90 [4, 8]: 2.0 µg/mL (≈ 2.13 µM) | MIC Range [4, 8]: ≦0.002 to 4.0^ μg/mL | MIC90 [4, 9]: 4.0 µg/mL (≈ 4.25 µM) | MIC Range [4, 9]: 0.0009 to 4.0 µg/mL | MIC90 [4, 10]: 0.0156 µg/mL (≈ 0.0166 µM) | MIC Range [4, 10]: 0.0009 to 0.125 µg/mL | MIC90 [4, 11]: 4.0 µg/mL (≈ 4.25 µM) | MIC Range [4, 11]: 0.062 to 4.0 µg/mL | MIC90 [4, 12]: <0.125 µg/mL | MIC Range [4, 12]: <0.125 µg/mL | MIC90 ([4]; Ref. 6, BACTEC, 20 strains (rif^r)): >2.0 µg/mL | MIC ([4]; reference strain H37Rv, BACTEC): 0.004 µg/mL (≈ 0.00425 µM) | MIC ([4]; reference strain Kurono, BACTEC): 0.002 µg/mL (≈ 0.00213 µM) | MIC90 ([4]; rifampin-sensitive Mycobacterium tuberculosis): 0.0156 µg/mL (≈ 0.0166 µM) | MIC50 50% inhibition [4, 13]: 0.016 µg/mL (≈ 0.017 µM) | MIC90 90% inhibition [4, 13]: 2.0 µg/mL (≈ 2.13 µM) | MIC90 [5]: 0.1 µg/mL (≈ 0.106 µM) | spontaneous locomotor activity ([6]; 1000 mg/kg): increase in spontaneous locomotor activity for one hour | spontaneous locomotor activity ([6]; 100 and 300 mg/kg): no effect | clinical signs or general behavior ([6]; oral 100, 300, or 1,000 mg/kg): little effect
